Measured values reported in patent US7998460B2, “Prevention of deficits in neurogenesis with anti-inflammatory agents” (The Board of Trustees of the Leland Stanford Junior …, priority 2003, dated 2011).
“Also recorded” adds a separate entry of the source.

Assays:
adult rats = assay: Barnes maze after LPS; assay type: in vivo, rat
Description: LPS-induced inflammatory response impairs performance in the Barnes maze. It has been reported previously that irradiation and LPS-induced inflammation impair performance in hippocampus-dependent spatial tasks. The present studies confirm that LPS treatment impaired recall of a goal position learned prior to LPS treatment. The Barnes maze is a 6-foot diameter bright white platform with 8 escape boxes under holes in the rim of the platform. All escape holes are blocked except one and the rat is initially placed in the goal box for familiarization. The rat is then placed in the center of the maze and is allowed to find its way back to the goal box to escape the aversive brightly lit platform. Learning is seen as a decrease in the distance traveled to reach the goal box with consecutive trials on a given day and in repeat sessions on sequential days. One measure of recall is to determine distance traveled when the animal is tested on the same task after a time delay or after experimental treatments.
To determine if there were differences in recall following LPS treatment, animals were trained on the Barnes maze for 5 consecutive days prior to LPS treatment. LPS was given on day 0 and animals tested for recall on day 7. Low-dose intraperitoneal LPS treatment makes animals feel mildly ill and they will reduce their water and food intake for a period of one or two days. There is a temporary weight loss that is fully recovered by day 7.
Animals were weighed daily and after 7 days tested for memory retention on the Barnes maze. On days 8-11, animals were re-trained for their ability to learn the position of a new goal box in the Barnes maze. Animals were then tested on day 14 for the ability to remember the position of the second goal box. LPS caused a ˜14% increase in the distance traveled to the goal box learned prior to LPS treatment, indicating impaired spatial memory. LPS caused a significant increase (˜28%) in the distance traveled during day 8 trials used to learn the position of the new goal box (indicating impaired spatial learning) but all animals eventually learned the position of the goal box by day 11 (no difference in distance traveled between LPS and control groups).

C57BI/6 mice = assay: Locomotor chambers and Morris water maze after LPS in mice; assay type: in vivo, mouse; details: for effect of NSAID on LPS-induced impairment of probe trial performance: oral NSAID course, training from Day 28
Method: Behavioral testing. Locomotor activity was measured in 17×17 inch chambers lined with three 16-beam infrared arrays in photocell boxes (MED Associates, Inc., St. Albans, Vt.). The mice were placed into the chambers and their locomotor activity was recorded for 20 minutes 4 days after LPS was injected (on Day 4). A 50 msec scanning rate was used for measuring beams broken. Distance traveled was analyzed for estimates of locomotion based on the movement of a given distance and resting delay (movement in a given period) using Open Field Activity software (MED Associates, Inc., St. Albans, Vt.).
Hippocampus-dependent learning and memory was assessed in the standard Morris water maze task. All hippocampus-dependent training and testing was conducted in a black circular tank (170 cm diameter×43 cm height) filled water made opaque using white non-toxic Tempra paint (Rich Art Color Co. Inc, Northvale, Calif.; training and testing). A platform (13 cm diameter×28.5 cm height) was hidden 1 cm below the water surface for platform shaping and training trials. Time and distance traveled in the pool was recorded using Videotrack Automated Behavioral Analysis System (Viewpoint Life Sciences Inc., Otterburn Park, Quebec).
Platform shaping began three days before platform training (Days 25-27). In the absence of extra-maze cues, mice were released from random points in the pool (filled with clearwater) near the platform and gently guided to the platform. Shaping trials continued until the mouse remained on the platform for 15 s over 3 consecutive trials on each of the three sessions.
[…] In the presence of extra-maze cues, the mice were released from the middle of the east, south, or west quadrant, facing the pool wall, and were given 120 s to find the platform hidden beneath opaque water in the center of the north quadrant. […] Sessions of 6 training trials (inter-trial interval of approximately 30 min) were conducted daily until all the mice located the platform in an average of 15 s or less within a session. […] Pathlength and latency were analyzed as measures of learning, swim speed was analyzed as a measure of sensorimotor ability and % time spent in outer annulus was analyzed as a measure of anxiety.
Probe Trial Testing was conducted at 1 week after mice reached criterion in the platform training phase of the experiment. The room setup was identical for platform training and probe trials, with the exception that the platform was removed from the pool during probe trials. The mice were given a single trial in which they were released from the center of the pool and then after 3 minutes were removed from the location that held the platform during training trials. Percent time and distance spent in each quadrant were analyzed as measures of memory, swim speed and total distance swum were analyzed as measures of sensorimotor ability and % time and distance spent in the outer annulus were analyzed as measures of anxiety. After the last probe trial, we ran four daily sessions of reversal trials (4 trials per session) in which mice were given 120 s to locate the platform hidden beneath opaque water in the south quadrant to better interpret whether probe trial performance was indicative of memory or perseveration. […] A visible platform session (2 trials) was administered after the final reversal trial to further test sensorimotor ability. Reversal and visible platform trial performance was scored identically to platform training performance.

Row | Compound | learning and memory, drug alone by intraperitoneal injection (adult rats; indomethacin 2.5 mg/kg twice daily i.p., no LPS) | learning and memory, oral drug alone (adult rats; indomethacin 2.5 mg/kg twice daily oral, no LPS) | effect on LPS effects on memory retention and learning of second goal box (adult rats; oral indomethacin 2.5 mg/kg twice daily with LPS) | effect of NSAID on LPS-induced impairment of probe trial performance (C57BI/6 mice; LPS 5 mg/kg) | effect of NSAID on LPS-induced impairment of probe trial performance (C57BI/6 mice; LPS 5 mg/kg, listed as Indomethacin) | increase in distance traveled to the goal box learned prior to LPS treatment (adult rats; day 7 after LPS, memory retention) | increase in distance traveled during day 8 trials to learn the new goal box (adult rats; day 8 after LPS, spatial learning) | total distance explored and duration spent exploring a novel chamber vs vehicle (C57BI/6 mice; LPS 5 mg/kg, Day 4) | learning and remembering hidden platform position vs control, acute phase recovery (C57BI/6 mice; LPS 5 mg/kg, training from Day 7) | probe trial time in platform quadrant vs control (C57BI/6 mice; training commenced 4 weeks after LPS)
1 | COc1ccc2c(c1)c(CC(=O)O)c(C)n2C(=O)c1ccc(Cl)cc1 [indomethacin] | perform more poorly in all tasks at all time points | no measurable effects | completely reverse | partially attenuated | reversed the effects of LPS on probe trial performance |  |  |  |  | 
2 | lipopolysaccharide [LPS] |  |  |  |  |  | ~14% | ~28% | significantly smaller | equally efficient | significantly smaller amount of time; also recorded: significantly less time
